Data reported in patent US6495525B1, “VLA-4 inhibitor: oMePUPA-V” (Biogen, Inc., priority 1998, dated 2002).
In brackets after ≈: the same amount, converted by molar mass.

Columns and labels:
VLA-4 [1] = target: T1, VLA-4 (Homo sapiens, UniProt P05556+P13612); experiment: VLA-4-VCAM-Ig binding (Table 1; VLA-4 binding assays); set-up: endogenous in cells; host or cells: Jurkat (human T cell line); details: read-out: IC50 against VLA-4-VCAM-Ig binding
Text: A direct binding assay may also be employed to quantitate the inhibitory activity of the compounds of this invention. In this assay, a VCAM-IgG fusion protein containing the first two immunoglobulin domains of VCAM (D1D2) attached above the hinge region of an IgG1 molecule (“VCAM 2D-IgG”), is conjugated to a marker enzyme, such as alkaline phosphatase (“AP”). The synthesis of this VCAM-IgG fusion is described in PCT publication WO 90/13300, the disclosure of which is herein incorporated by reference. The conjugation of that fusion to a marker enzyme is achieved by cross-linking methods well-known in the art.
The VCAM-IgG enzyme conjugate is then placed in the wells of a multi-well filtration plate, such as that contained in the Millipore Multiscreen Assay System (Millipore Corp., Bedford, Ma.). Varying concentrations of the test inhibitory compound are then added to the wells followed by addition of VLA-4-expressing cells. The cells, compound and VCAM-IgG enzyme conjugate are mixed together and allowed to incubate at room temperature.
Following incubation, the wells are vacuum drained, leaving behind the cells and any bound VCAM. Quantitation of bound VCAM is determined by adding an appropriate colorimetric substrate for the enzyme conjugated to VCAM-IgG and determining the amount of reaction product. Decreased reaction product indicates increased binding inhibitory activity. […]

human ACE = target: T2, human ACE (Homo sapiens, UniProt P12821); experiment: ACE protease activity (Cerep, HUVEC, 3H-HGG conversion); type: biochemical
T2 construct: The source of ACE proteases was human endothelial cells (HUVEC); host or cells: HUVEC (human endothelial cells)
T2 sequence (P12821 30-1306): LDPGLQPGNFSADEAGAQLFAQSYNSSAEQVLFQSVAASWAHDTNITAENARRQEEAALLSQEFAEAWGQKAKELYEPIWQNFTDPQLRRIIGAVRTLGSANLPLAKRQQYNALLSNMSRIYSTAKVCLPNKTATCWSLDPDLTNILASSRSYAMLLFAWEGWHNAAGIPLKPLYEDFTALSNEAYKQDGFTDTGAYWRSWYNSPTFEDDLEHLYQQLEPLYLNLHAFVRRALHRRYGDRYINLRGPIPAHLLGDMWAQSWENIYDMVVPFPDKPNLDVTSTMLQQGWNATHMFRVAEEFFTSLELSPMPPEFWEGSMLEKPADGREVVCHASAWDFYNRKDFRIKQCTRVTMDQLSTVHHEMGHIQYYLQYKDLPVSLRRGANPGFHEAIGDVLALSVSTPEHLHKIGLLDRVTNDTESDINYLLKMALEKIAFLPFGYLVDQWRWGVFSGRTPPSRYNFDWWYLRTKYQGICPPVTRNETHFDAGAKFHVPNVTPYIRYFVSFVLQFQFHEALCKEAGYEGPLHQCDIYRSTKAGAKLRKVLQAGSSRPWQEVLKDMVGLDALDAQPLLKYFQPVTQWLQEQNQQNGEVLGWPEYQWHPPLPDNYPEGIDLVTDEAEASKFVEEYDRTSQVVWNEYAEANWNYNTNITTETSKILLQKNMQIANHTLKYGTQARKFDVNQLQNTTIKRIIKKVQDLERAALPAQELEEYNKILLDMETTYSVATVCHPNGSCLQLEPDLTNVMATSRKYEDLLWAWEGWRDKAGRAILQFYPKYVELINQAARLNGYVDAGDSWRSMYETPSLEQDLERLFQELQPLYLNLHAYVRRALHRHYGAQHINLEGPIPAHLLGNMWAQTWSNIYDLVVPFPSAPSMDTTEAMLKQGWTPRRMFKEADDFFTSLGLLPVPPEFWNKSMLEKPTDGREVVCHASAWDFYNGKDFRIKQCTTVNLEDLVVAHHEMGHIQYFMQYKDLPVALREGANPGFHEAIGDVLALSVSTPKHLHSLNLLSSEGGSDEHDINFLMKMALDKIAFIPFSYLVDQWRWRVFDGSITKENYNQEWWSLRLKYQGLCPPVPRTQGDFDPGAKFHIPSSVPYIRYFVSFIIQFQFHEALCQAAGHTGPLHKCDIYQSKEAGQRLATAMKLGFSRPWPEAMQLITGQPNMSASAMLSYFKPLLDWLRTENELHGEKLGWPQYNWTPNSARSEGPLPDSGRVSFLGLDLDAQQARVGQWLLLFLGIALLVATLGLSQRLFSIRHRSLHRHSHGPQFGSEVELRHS
Text: The source of ACE proteases was human endothelial cells (HUVEC). ^3H-HGG, added to HUVEC, was converted to ^3H-hippuric acid and glycylglycine by ACE.

Solubility = type: physicochemical
[2] = Bulk / drug substance stability (HPLC); type: physicochemical
Protocol: At four weeks, one or two degradation peaks became detectable at 40° C. and 50° C., but the level of each impurity peak was still less than 0.02%.

Crystallinity = type: physicochemical
[3] = tested on: panel of radioligand, enzyme, and functional assays; experiment: Panlabs ProfilingScreen, DiscoveryScreen, Immunoscreen and Cerep membrane receptor panel
Protocol: oMePUPA-V was tested in the Panlabs ProfilingScreen, DiscoveryScreen, and Immunoscreen panel of radioligand, enzyme, and functional assays and in the Cerep membrane receptor panel.

VLA-4 [4] = target: T3, VLA-4 (Mus musculus, UniProt P09055+Q00651); experiment: VCAM-Ig Competitive Binding Assay on mouse splenocytes; details: Mn+2
T3 construct: from tissue; host or cells: mouse spleen cells
T3 sequence (Q00651 41-1039): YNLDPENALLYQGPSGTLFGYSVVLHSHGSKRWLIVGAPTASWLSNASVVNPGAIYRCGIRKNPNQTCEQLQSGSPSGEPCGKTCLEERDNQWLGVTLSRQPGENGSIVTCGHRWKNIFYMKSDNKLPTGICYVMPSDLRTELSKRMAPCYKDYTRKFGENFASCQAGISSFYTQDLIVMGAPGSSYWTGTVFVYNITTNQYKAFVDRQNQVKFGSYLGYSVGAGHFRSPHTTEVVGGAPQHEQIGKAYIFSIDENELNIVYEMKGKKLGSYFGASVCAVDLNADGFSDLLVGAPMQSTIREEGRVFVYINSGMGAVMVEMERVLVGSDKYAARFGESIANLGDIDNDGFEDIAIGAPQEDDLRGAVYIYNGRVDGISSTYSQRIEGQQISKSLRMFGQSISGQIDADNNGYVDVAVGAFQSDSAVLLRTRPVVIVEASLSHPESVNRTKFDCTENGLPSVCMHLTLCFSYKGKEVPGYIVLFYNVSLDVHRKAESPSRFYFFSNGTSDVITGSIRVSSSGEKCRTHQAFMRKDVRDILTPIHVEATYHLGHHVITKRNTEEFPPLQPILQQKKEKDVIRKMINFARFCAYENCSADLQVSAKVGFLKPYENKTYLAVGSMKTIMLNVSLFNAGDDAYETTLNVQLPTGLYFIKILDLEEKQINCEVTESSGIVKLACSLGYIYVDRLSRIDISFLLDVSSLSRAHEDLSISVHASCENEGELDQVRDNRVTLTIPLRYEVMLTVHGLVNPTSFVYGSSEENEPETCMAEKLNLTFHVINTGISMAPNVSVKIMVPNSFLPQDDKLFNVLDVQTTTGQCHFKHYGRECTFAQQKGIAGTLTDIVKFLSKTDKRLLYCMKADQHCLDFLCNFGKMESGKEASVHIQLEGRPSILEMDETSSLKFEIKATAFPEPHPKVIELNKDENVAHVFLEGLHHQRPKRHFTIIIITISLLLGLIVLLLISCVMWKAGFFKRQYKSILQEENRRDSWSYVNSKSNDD
T3 sequence (P09055 21-798): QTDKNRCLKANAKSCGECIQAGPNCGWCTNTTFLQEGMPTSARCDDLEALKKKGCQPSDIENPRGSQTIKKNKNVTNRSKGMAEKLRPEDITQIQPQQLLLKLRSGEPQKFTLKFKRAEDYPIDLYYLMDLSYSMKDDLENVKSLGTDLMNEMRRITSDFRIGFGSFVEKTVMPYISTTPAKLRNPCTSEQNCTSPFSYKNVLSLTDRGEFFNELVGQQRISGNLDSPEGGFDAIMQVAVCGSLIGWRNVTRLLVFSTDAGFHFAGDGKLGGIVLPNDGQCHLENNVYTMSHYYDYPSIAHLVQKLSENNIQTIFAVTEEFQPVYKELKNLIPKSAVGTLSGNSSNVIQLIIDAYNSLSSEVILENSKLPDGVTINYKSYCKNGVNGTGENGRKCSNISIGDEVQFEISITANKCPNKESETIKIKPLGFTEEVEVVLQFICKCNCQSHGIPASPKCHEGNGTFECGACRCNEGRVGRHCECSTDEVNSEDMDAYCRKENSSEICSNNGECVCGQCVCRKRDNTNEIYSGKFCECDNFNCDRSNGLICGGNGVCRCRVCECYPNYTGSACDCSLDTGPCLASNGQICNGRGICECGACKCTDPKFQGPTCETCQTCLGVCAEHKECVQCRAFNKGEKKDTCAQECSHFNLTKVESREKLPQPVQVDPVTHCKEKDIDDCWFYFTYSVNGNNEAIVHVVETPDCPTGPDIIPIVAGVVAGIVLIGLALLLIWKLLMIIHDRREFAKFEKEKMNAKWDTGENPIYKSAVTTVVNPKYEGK

VLA-4 [5] = target: T1, VLA-4; experiment: Competition / dissociation assay with 3H-known inhibitor on Jurkat cells; type: binding; set-up: endogenous in cells; host or cells: Jurkat (human T cell line); details: Mn+2-activated VLA-4
Protocol: Jurkat cells were maintained in RPMI-1640 medium plus 10% fetal bovine serum at 37° C. in a tissue culture incubator. For binding studies, the cells were pelleted by centrifugation, washed two times with TBS (50 mM Tris HCl, 150 mM NaCl, 0.1% bovine serum albumin, 2 mM glucose, 10 mM HEPES pH 7.4), suspended at approximately 2×10^6 cells/ml in TBS, and counted using a Neubauer hemocytometer. The cells were further diluted to 1.5×10^6/ml in the buffers indicated and subjected to the specific treatments defined for each experiment. The cells were then pelleted by centrifugation, resuspended in 100 μl of assay buffer, and transferred to a scintillation vial containing 2.9 ml of ScintiVerse II (Fisher Scientific). Cell-associated radioactivity was quantified by scintillation counting. Counts bound under these conditions measures integrin that is not occupied by the test compound and is therefore free to bind the ^3H-known inhibitor. […] Specific counts bound were calculated by subtracting non-specific counts from total counts bound.
A series of competition studies were performed to verify that oMePUPA-V and the known inhibitor compete for the same site on VLA-4. […] Third, Mn^+2-activated Jurkat cells were treated with saturating amounts of oMePUPA-V, and the rate at which the oMePUPA-V dissociated was measured. […]

T1 sequence (P13612 34-1032): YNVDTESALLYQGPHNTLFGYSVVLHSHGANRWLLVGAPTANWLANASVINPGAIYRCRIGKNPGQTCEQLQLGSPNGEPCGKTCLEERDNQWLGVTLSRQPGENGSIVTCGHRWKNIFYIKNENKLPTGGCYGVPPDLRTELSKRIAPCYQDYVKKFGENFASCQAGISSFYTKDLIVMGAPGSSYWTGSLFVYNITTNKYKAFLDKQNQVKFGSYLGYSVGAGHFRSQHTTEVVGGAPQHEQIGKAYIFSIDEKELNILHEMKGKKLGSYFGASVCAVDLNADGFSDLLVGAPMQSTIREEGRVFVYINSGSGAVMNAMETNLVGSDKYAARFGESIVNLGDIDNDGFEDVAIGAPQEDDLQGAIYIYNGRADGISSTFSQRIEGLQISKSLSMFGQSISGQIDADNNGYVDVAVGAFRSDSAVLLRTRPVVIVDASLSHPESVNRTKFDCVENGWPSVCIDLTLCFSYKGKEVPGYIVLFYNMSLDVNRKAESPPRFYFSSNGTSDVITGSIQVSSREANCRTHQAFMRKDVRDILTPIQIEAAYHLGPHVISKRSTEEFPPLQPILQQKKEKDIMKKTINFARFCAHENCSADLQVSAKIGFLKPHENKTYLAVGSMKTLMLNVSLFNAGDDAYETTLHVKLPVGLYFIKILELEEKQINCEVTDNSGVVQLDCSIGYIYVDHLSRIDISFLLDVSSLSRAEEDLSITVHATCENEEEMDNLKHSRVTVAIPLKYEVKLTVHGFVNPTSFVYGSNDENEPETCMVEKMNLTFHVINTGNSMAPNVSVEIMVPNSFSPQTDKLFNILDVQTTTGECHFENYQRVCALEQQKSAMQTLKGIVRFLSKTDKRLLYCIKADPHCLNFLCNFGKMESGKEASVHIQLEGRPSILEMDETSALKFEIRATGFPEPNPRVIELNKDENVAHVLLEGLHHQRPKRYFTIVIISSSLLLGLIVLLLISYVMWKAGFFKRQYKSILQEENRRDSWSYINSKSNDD
T1 sequence (P05556 21-798): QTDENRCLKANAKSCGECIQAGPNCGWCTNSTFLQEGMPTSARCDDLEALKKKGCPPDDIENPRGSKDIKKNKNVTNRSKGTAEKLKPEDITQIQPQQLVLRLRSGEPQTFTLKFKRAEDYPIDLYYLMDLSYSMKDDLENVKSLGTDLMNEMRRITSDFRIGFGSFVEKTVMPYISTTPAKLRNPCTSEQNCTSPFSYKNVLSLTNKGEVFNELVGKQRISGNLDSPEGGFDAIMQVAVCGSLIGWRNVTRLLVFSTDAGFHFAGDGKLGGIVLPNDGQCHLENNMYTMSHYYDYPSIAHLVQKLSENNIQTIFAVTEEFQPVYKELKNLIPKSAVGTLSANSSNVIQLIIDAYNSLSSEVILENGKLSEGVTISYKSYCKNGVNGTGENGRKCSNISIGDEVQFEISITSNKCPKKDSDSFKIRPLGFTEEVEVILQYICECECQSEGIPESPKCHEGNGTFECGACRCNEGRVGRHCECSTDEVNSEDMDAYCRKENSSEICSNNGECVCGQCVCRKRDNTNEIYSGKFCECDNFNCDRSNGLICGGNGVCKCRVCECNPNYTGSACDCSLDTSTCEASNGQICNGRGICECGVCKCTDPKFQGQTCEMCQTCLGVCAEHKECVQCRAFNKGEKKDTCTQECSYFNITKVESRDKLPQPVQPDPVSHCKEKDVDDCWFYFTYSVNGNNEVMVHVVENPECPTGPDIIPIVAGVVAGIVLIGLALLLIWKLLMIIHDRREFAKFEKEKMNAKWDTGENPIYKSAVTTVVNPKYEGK

Compound: Cc1ccccc1NC(=O)Nc1ccc(CC(=O)N2CCC[C@H]2C(=O)N[C@H](C)CC(=O)O)cc1 [oMePUPA-V]
- IC50 (VLA-4 [1]): 2.7 nM
- ACE activity (human ACE): clean
- inhibition of human ACE protease activity (human ACE; at 10 μM, HUVEC): no inhibition
- solubility in DMSO (Solubility; DMSO): soluble
- solubility (Solubility; aqueous medium): 120 µg/mL (≈ 257 µM)
- Bulk stability (40° C., 75% RH), time stable [2]: stable >4 wk
- Crystallinity (Crystallinity): YES
- In vitro pharma screen 85 tests [3]: clean
- activity in Panlabs and Cerep panels ([3]; at 10 μM): No significant activity
- IC50 (VLA-4 [4]): 4 ± 2 nM
- concentration needed to compete 3H-known inhibitor binding, relative to cold known inhibitor (VLA-4 [5]): 10 fold
